PubChem BioAssay (NCI)
“And” between values parts separate entries of the source, which are not always exact repeats. Identical values can stand only once.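 1) Cells in 96-well plates. 2) Compound, 48 h, 5 concentrations. 3) Linear interpolation between surrounding doses. 4) Unreached endpoint = highest concentration. The concentration for 50% growth inhibition is given as GI50. TGI is the concentration that stops growth completely.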

Tests used:
Test in all cases: DTP human tumour cell line panel, 48 h
[1] = test system: DLD-1 colon
[2] = test system: DMS 114 small cell lung
[3] = test system: DMS 273 small cell lung
[4] = test system: KM20L2 colon
[5] = test system: LXFL 529 NSCLC
[6] = test system: DU-145 prostate
[7] = test system: HS 578T breast
[8] = test system: MCF7 breast
[9] = test system: NCI/ADR-RES ovarian
[10] = test system: SNB-78 CNS
[11] = test system: XF 498 CNS

SMILES | TGI [1] [µM] | TGI [2] [µM] | TGI [3] [µM] | TGI [4] [µM] | TGI [5] [µM] | GI50 [6] | TGI [6] [µM] | GI50 [7] | TGI [7] [µM] | GI50 [8] | TGI [8] [µM] | GI50 [9] | TGI [9] | TGI [10] [µM] | TGI [11] [µM]
Cc1ccccc1NC(=O)/C=N/O | > 100 | > 100 | > 100 | 32 | > 100 | – | – | – | – | – | – | – | – | – | –
C/C=C/C/C=C/[C@H](C)C[C@H](O)[C@@H]1C[C@@H]2O[C@H]2/C=C/[C@@H]2OC(C)(C)O[C@H]2/C=C/C[C@H](C)CC(=O)O1 | – | – | – | – | – | 12.3 µM | > 100 | 5.22 µM | > 100 | 25.5 µM | > 100 | 3.28 µM | > 100 µM | – | –
COCCOCCOCc1n(Cc2ccc3ccccc3c2)c2ccccc2[n+]1Cc1ccc2ccccc2c1 | – | – | – | – | – | 0.766 µM | 2.14 | 1.14 µM | 2.96 | 0.325 µM | 1.45 | 15.1 µM | 44.3 µM | – | –
CC1=C(/C=C/C(=O)CC(=O)/C=C/C2=C(C)CCCC2(C)C)C(C)(C)CCC1 | – | – | – | – | – | 14.3 µM | > 100 | 14.7 µM | 68.4 | 22.7 µM | 72.9 | 31.4 µM | > 100 µM | – | –
O=C1CC[C@H](N2Cc3c(OCc4ccc(CN5CCOCC5)cc4)cccc3C2=O)C(=O)N1 | – | – | – | – | – | > 100 µM | > 100 | > 100 µM | > 100 | > 100 µM | > 100 | > 100 µM | > 100 µM | – | –
CNC(=O)c1cc(Oc2cccc3nc(NC(=O)Nc4cc(C(F)(F)F)cc(C(F)(F)F)c4)ccc23)ccn1 | – | – | – | – | – | 6.29 µM | 65.9 | 2.57 µM | 13.5 | 7.43 µM | 66.6 | 5.62 µM | 52 µM | – | –
C=C1c2ccccc2C(=O)c2c1c1c(C(=O)OC)c(OC(=O)OCc3ccc([N+](=O)[O-])cc3)ccc1n2Cc1ccccc1 | – | – | – | – | – | 3.62 µM | 33.5 | 4.69 µM | > 100 | 13.4 µM | 43.2 | 3.46 µM | 15 µM | – | –
O=C1N2Cc3c4ccc5c3CN3C(=O)N6Cc7c(ccc(c7CN1C6(c1ccccc1)C23c1ccccc1)OCCOCCOc1cc(Br)c(Br)cc1OCCOCCO4)OCCOCCOc1cc(Br)c(Br)cc1OCCOCCO5 (configuration not stated) | 42.1 | > 100 | > 100 | > 100 | > 100 | – | – | – | – | – | – | – | – | > 100 | –
O=C1/C=C/[C@@H](O)[C@@H]2C[C@@H](O)C[C@H]2/C=C/CCC[C@H](CCc2ccc3ncccc3c2)O1 | – | – | – | – | – | 0.564 µM | > 100 | 1.23 µM | > 100 | 0.27 µM | > 100 | 0.396 µM | 9.05 µM | – | –
O=c1c2ccccc2[nH]c2c(O)ccc(O)c12 | – | 42.5 | 30.5 | > 100 | 28.5 | – | – | – | – | – | – | – | – | 39.6 | 30.9
Cc1cc(-c2nnc(/C=C/c3ccc4c(c3)OCO4)o2)n[nH]1 | – | – | – | – | – | 9.17 µM | 29.4 | 9.64 µM | 47 | 15.1 µM | > 50 | 7.33 µM | 21.4 µM | – | –
O=[N+]([O-])c1cccc(-c2nc(-c3ccc(Cl)cc3Cl)cn2-c2ccccc2)c1 | – | – | – | – | – | 0.574 µM | 1.19 | 0.428 µM | 1.15 | 0.909 µM | 4.02 | 1.56 µM | 15.6 µM | – | –
CCOC(=O)Nc1nc2ccccc2[nH]1 | – | – | – | – | – | 8.58 µM and 4.18 µM | > 100 | 4.3 µM and 3.48 µM | > 100 | 3.63 µM and 3.15 µM | > 100 | 3.55 µM and 3.47 µM | 35.3 µM and > 25.9 µM | – | –
CCC1C(C)C=NN1c1nc(N)nc(C(C#N)=Nc2ccc(N(C)C)cc2)n1 (configuration not stated) | – | – | – | – | – | 9.32 µM | 17.4 | – | – | 9.76 µM | 17.8 | 9.88 µM | 22 µM | – | –
CCO/S(=N/S(=O)(=O)c1ccccc1)c1ccccc1[N+](=O)[O-] (configuration not stated) | > 100 | > 100 | > 100 | > 100 | > 100 | – | – | – | – | – | – | – | – | – | > 100
Nc1ccccc1C#C/C=C\C#CC#C/C=C\C#Cc1ccccc1N | – | – | – | – | – | 2.97 µM | 13.5 | 12.4 µM | 56.7 | 4.6 µM | > 100 | 2.85 µM | 16.3 µM | – | –
O=C(Nc1cccc(-n2cc(-c3ccncc3)c(-c3ccc(O)c(Cl)c3)n2)c1)c1ccc2c(c1)OCCO2 | – | – | – | – | – | > 100 µM | > 100 | 6.01 µM | > 100 | 4.24 µM | > 100 | 5.7 µM | > 100 µM | – | –
Cc1cc(C(=O)/C=C/c2ccc[nH]2)ccc1-n1ccc(C(F)(F)F)n1 | – | – | – | – | – | 24.8 µM | > 100 | 11.1 µM | > 100 | 5.53 µM | > 100 | 17.1 µM | > 100 µM | – | –
NCCCCCNc1noc(Cc2c[nH]c3cc(Br)ccc23)n1 | – | – | – | – | – | 3.11 µM | 9.01 | 1.99 µM | 22.1 | 3.42 µM | 16.3 | – | – | – | –
CN(C)C(=O)OCc1nc2c(N3CCOCC3)nc(-c3ccccc3)nc2n1C | – | – | – | – | – | 1.05 µM | 2.28 | 1.42 µM | 4.33 | 0.427 µM | 2.09 | 1.59 µM | 6.53 µM | – | –
Cc1c(Cl)c(=O)oc2cc(OC/C=C3\CCC(=O)O3)ccc12 | – | – | – | – | – | 14 µM | 29.4 | 24.2 µM | 77.4 | 13.4 µM | 37.8 | 24.1 µM | 59.4 µM | – | –
O=C(O)c1cc2ccccc2c2c3c(ccc12)OCO3 | – | – | – | – | – | 303 µM | > 1000 | 129 µM | 522 | 227 µM | 895 | 210 µM | 754 µM | – | –
Nc1nonc1-c1nc2ccccc2n1Cc1ccc(F)cc1 | – | – | – | – | – | > 100 µM | > 100 | 3.18 µM | > 100 | 3.78 µM | > 100 | 4.16 µM | > 100 µM | – | –
Nc1ncnc2c1ncn2C1OC(COS(N)(=O)=O)C(O)C1O (configuration not stated) | – | – | – | – | – | < 0.001 µM | – | – | – | – | – | – | – | – | –
O=C1/C(=C/c2ccc3c(c2)OCCO3)CCC/C1=C\c1ccc2c(c1)OCCO2 | 48.4 | – | 43.9 | 37.5 | > 100 | – | – | – | – | – | – | – | – | > 100 | –
